Experimental data taken from PubChem BioAssay AID248 (DTP/NCI, 2004).
Values joined by “and” are separate entries in the source; they are usually repeats but may differ in a detail not shown here. Identical values can stand only once. Toxic doses and inconclusive results are not listed. Rule as the data show it: active = T/C of 150% or more; inactive = T/C below 125%.

System: L1210 leukemia ip in BDF1 mice, survival T/C
Assay: NCI In Vivo Anticancer Drug Screen. Data for tumor model L1210 Leukemia (intraperitoneal) in B6D2F1 (BDF1) mice
Details: endpoint: mean survival time, higher = longer survival
Method in brief: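 Each compound was tested against a transplantable tumor grown in mice. The endpoint was survival, with treated animals benchmarked against vehicle controls as a simple ratio.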

[1] = dose: 100.0 mg/kg/injection, schedule: Q01DX009 (ip), vehicle: saline
[2] = dose: 100.0 mg/kg/injection, schedule: Q04DX003 (ip), vehicle: saline
[3] = dose: 100.0 mg/kg/injection, schedule: Q04DX002 (ip), vehicle: saline
[4] = dose: 200.0 mg/kg/injection, schedule: Q04DX002 (ip), vehicle: saline

Measured: T/C

Cc1ccc(C(C)(C#N)Nc2ccccc2)cc1 (stereo not drawn)
inactive: dose: 100.0 mg/kg/injection, schedule: Q01DX001 (ip), vehicle: Klucel (hydroxypropylcellulose) (HPC) 88 % of control | dose: 100.0 mg/kg/injection, schedule: Q04DX003 (ip), vehicle: Klucel (hydroxypropylcellulose) (HPC) 105 % of control | dose: 200.0 mg/kg/injection, schedule: Q01DX001 (ip), vehicle: Klucel (hydroxypropylcellulose) (HPC) 91 % of control | dose: 200.0 mg/kg/injection, schedule: Q04DX003 (ip), vehicle: Klucel (hydroxypropylcellulose) (HPC) 95 % of control | dose: 400.0 mg/kg/injection, schedule: Q01DX001 (ip), vehicle: Klucel (hydroxypropylcellulose) (HPC) 92 % of control | dose: 400.0 mg/kg/injection, schedule: Q04DX003 (ip), vehicle: Klucel (hydroxypropylcellulose) (HPC) 105 % of control

C=CCNC(C)=O
inactive: [1] 97 % of control | [2] 98 % of control | dose: 200.0 mg/kg/injection, schedule: Q01DX009 (ip), vehicle: saline 97 % of control | dose: 200.0 mg/kg/injection, schedule: Q04DX003 (ip), vehicle: saline 97 % of control | dose: 400.0 mg/kg/injection, schedule: Q01DX009 (ip), vehicle: saline 97 % of control

CCC(C)(O)C(=O)O (stereo not drawn)
inactive: [3] 114 % of control | [4] 114 % of control

O=C(O)c1ccc(Br)cc1.[Ni]
inactive: dose: 25.0 mg/kg/injection, schedule: Q04DX002 (ip), vehicle: gum acacia 100 % of control | dose: 50.0 mg/kg/injection, schedule: Q04DX002 (ip), vehicle: gum acacia 101 % of control

Nc1ccc2c(c1)C(=O)c1c(F)ccc(F)c1-2
inactive: dose: 50.0 mg/kg/injection, schedule: Q01DX001 (ip), vehicle: carboxymethylcellulose (CMC) 98 % of control | dose: 100.0 mg/kg/injection, schedule: Q01DX001 (ip), vehicle: carboxymethylcellulose (CMC) 96 % of control | dose: 200.0 mg/kg/injection, schedule: Q01DX001 (ip), vehicle: carboxymethylcellulose (CMC) 104 % of control | dose: 400.0 mg/kg/injection, schedule: Q01DX001 (ip), vehicle: carboxymethylcellulose (CMC) 115 % of control

COc1ccc(C(=O)NCc2cccs2)cc1
inactive: dose: 100.0 mg/kg/injection, schedule: Q04DX002 (ip), vehicle: Klucel (hydroxypropylcellulose) (HPC) 91 % of control | dose: 200.0 mg/kg/injection, schedule: Q04DX002 (ip), vehicle: Klucel (hydroxypropylcellulose) (HPC) 102 % of control | dose: 400.0 mg/kg/injection, schedule: Q04DX002 (ip), vehicle: Klucel (hydroxypropylcellulose) (HPC) 97 % of control

CC1(C)CC(=O)C(C23C=CC2=C(CO)C(=O)OC3)C1 (stereo not drawn)
inactive: dose: 5.0 mg/kg/injection, schedule: Q01DX001 (ip), vehicle: saline 96 % of control | dose: 10.0 mg/kg/injection, schedule: Q01DX001 (ip), vehicle: saline 96 % of control | dose: 20.0 mg/kg/injection, schedule: Q01DX001 (ip), vehicle: saline 98 % of control | dose: 40.0 mg/kg/injection, schedule: Q01DX001 (ip), vehicle: saline 110 % of control

CCOc1ccc(Br)cc1/C=N\N=C\c1cc(Br)ccc1OCC
inactive: dose: 25.0 mg/kg/injection, schedule: Q01DX009 (ip), vehicle: saline 101 % of control | dose: 50.0 mg/kg/injection, schedule: Q01DX009 (ip), vehicle: saline 100 % of control | [1] 100 % of control | [2] 86 % of control

Cc1ccc(C2CCCN(C)O2)cc1 (stereo not drawn)
inactive: dose: 100.0 mg/kg/injection, schedule: Q01DX001 (ip), vehicle: saline 102 % of control | dose: 200.0 mg/kg/injection, schedule: Q01DX001 (ip), vehicle: saline 101 % of control | dose: 400.0 mg/kg/injection, schedule: Q01DX001 (ip), vehicle: saline 93 % of control

CC(C)=CCC1=C(O)c2ccccc2C(=O)C1=O
inactive: dose: 0.5 mg/kg/injection, schedule: Q01DX Z (ip), vehicle: water 91 % of control | dose: 2.0 mg/kg/injection, schedule: Q01DX Z (ip), vehicle: water 94 % of control | dose: 8.0 mg/kg/injection, schedule: Q01DX Z (ip), vehicle: water 91 % of control | dose: 11.0 mg/kg/injection, schedule: Q01DX009 (ip), vehicle: carboxymethylcellulose (CMC) 107 % of control | dose: 11.0 mg/kg/injection, schedule: Q01DX009 (ip), vehicle: other 95 % of control and 102 % of control | dose: 15.0 mg/kg/injection, schedule: Q01DX Z (ip), vehicle: water 88 % of control | dose: 16.67 mg/kg/injection, schedule: Q#B X027 (ip), vehicle: water 111 % of control | dose: 16.67 mg/kg/injection, schedule: Q#B X027 (sc), vehicle: water 97 % of control | dose: 17.0 mg/kg/injection, schedule: Q01DX009 (ip), vehicle: carboxymethylcellulose (CMC) 98 % of control | dose: 17.0 mg/kg/injection, schedule: Q01DX009 (ip), vehicle: other 94 % of control and 103 % of control | dose: 20.0 mg/kg/injection, schedule: Q01DX Z (ip), vehicle: water 96 % of control | dose: 25.0 mg/kg/injection, schedule: Q01DX009 (ip), vehicle: carboxymethylcellulose (CMC) 103 % of control | dose: 25.0 mg/kg/injection, schedule: Q01DX009 (ip), vehicle: other 95 % of control and 97 % of control | dose: 25.0 mg/kg/injection, schedule: Q#A X Z (ip), vehicle: water 90 % of control | dose: 30.0 mg/kg/injection, schedule: Q01DX Z (ip), vehicle: water 88 % of control | dose: 33.33 mg/kg/injection, schedule: Q#B X027 (oral), vehicle: water 100 % of control | dose: 33.33 mg/kg/injection, schedule: Q#B X027 (sc), vehicle: water 100 % of control | dose: 37.5 mg/kg/injection, schedule: Q01DX009 (ip), vehicle: carboxymethylcellulose (CMC) 98 % of control | dose: 37.5 mg/kg/injection, schedule: Q01DX009 (ip), vehicle: other 100 % of control and 102 % of control | dose: 40.0 mg/kg/injection, schedule: Q01DX Z (ip), vehicle: water 96 % of control | dose: 50.0 mg/kg/injection, schedule: Q01DX015 (ip), vehicle: water 95 % of control | dose: 50.0 mg/kg/injection, schedule: Q#A X Z (ip), vehicle: water 97 % of control | dose: 56.0 mg/kg/injection, schedule: Q01DX009 (ip), vehicle: carboxymethylcellulose (CMC) 102 % of control | dose: 60.0 mg/kg/injection, schedule: Q01DX Z (ip), vehicle: water 94 % of control | dose: 66.67 mg/kg/injection, schedule: Q#B X027 (ip), vehicle: water 120 % of control | dose: 66.67 mg/kg/injection, schedule: Q#B X027 (oral), vehicle: water 97 % of control | dose: 66.67 mg/kg/injection, schedule: Q#B X027 (sc), vehicle: water 100 % of control | dose: 84.0 mg/kg/injection, schedule: Q01DX009 (ip), vehicle: other 102 % of control and 104 % of control | dose: 90.0 mg/kg/injection, schedule: Q01DX Z (ip), vehicle: water 92 % of control | dose: 100.0 mg/kg/injection, schedule: Q01DX Z (oral), vehicle: water 91 % of control | dose: 100.0 mg/kg/injection, schedule: Q#A X Z (ip), vehicle: water 95 % of control | dose: 125.0 mg/kg/injection, schedule: Q#A X018 (oral), vehicle: other 102 % of control | dose: 126.0 mg/kg/injection, schedule: Q01DX009 (ip), vehicle: other 101 % of control and 104 % of control | dose: 133.33 mg/kg/injection, schedule: Q#B X027 (oral), vehicle: water 102 % of control | dose: 135.0 mg/kg/injection, schedule: Q01DX Z (ip), vehicle: water 94 % of control | dose: 189.0 mg/kg/injection, schedule: Q01DX009 (ip), vehicle: other 109 % of control and 122 % of control | dose: 200.0 mg/kg/injection, schedule: Q01DX001 (oral), vehicle: other 114 % of control | dose: 200.0 mg/kg/injection, schedule: Q01DX Z (ip), vehicle: water 102 % of control | dose: 200.0 mg/kg/injection, schedule: Q01DX Z (oral), vehicle: water 96 % of control | dose: 250.0 mg/kg/injection, schedule: Q#A X018 (oral), vehicle: other 97 % of control | dose: 300.0 mg/kg/injection, schedule: Q01DX Z (oral), vehicle: water 98 % of control | dose: 400.0 mg/kg/injection, schedule: Q01DX001 (oral), vehicle: other 100 % of control | dose: 600.0 mg/kg/injection, schedule: Q01DX001 (oral), vehicle: other 98 % of control | dose: 900.0 mg/kg/injection, schedule: Q01DX001 (oral), vehicle: other 96 % of control

COc1ccc(OC(C)OCCOCCO)cc1 (stereo not drawn)
inactive: [3] 107 % of control | [4] 93 % of control | dose: 400.0 mg/kg/injection, schedule: Q04DX002 (ip), vehicle: saline 107 % of control

O=C(C(=O)N1CC1)c1c[nH]c2ccccc12
inactive: dose: 25.0 mg/kg/injection, schedule: Q04DX003 (ip), vehicle: saline with Tween-80 95 % of control | dose: 50.0 mg/kg/injection, schedule: Q04DX003 (ip), vehicle: saline with Tween-80 91 % of control | dose: 100.0 mg/kg/injection, schedule: Q04DX003 (ip), vehicle: saline with Tween-80 95 % of control
